According to US20100098633A1, “SELECTIVE SEPRASE INHIBITORS” (Molecular Insight Pharmaceuticals, Inc., priority 2008, published 2010):

Target: T1, recombinant human seprase (rhFAP) (Homo sapiens, UniProt Q12884)
T1 sequence (Q12884 26-760 limits assumed): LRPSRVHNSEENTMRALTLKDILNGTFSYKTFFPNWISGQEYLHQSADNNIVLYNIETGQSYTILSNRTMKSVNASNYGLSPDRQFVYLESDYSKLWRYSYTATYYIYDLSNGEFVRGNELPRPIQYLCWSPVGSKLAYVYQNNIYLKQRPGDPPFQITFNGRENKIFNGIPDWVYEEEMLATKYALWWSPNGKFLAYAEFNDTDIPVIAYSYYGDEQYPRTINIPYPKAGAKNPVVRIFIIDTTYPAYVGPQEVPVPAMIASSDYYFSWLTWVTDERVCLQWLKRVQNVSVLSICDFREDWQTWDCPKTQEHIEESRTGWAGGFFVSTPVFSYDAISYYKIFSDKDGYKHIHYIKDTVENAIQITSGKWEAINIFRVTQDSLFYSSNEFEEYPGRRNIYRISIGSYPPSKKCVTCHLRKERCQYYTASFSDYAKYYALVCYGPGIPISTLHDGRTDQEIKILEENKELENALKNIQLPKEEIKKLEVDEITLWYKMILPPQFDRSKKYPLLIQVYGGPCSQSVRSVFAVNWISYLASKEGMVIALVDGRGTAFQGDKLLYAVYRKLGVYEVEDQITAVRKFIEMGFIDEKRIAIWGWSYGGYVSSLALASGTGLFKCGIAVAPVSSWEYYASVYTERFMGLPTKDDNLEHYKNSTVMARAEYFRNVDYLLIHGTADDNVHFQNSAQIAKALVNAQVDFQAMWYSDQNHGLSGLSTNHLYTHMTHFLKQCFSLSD
Assay: Inhibition of enzymatic activity of recombinant human seprase on Z-Gly-Pro-AMC (fluorescence)
Format: biochemical
Conditions: for IC50: in vitro data against seprase, read-out: FAP (IC50 nM)
Protocol: In vitro assaying of compounds for inhibition of dipeptidyl peptidase activity of seprase and DPP-IV can be achieved following the described in Edosada C. Y. et al. J. Biolog. Chem. 2006, 281, 7437-7444.
Selected test compounds were examined for their ability to inhibit the enzymatic activity of recombinant human seprase (rhFAP) on the substrate, benzyloxycarbonyl-Gly-Pro-7-amido-4-methylcoumarin (Z-Gly-Pro-AMC). In brief, 10 μg rhFAP was added to 50 μM Z-Gly-Pro-AMC in the presence of increasing concentrations of test compound, and enzymatic activity was determined by monitoring fluorescence (Ex. 355 nm/Em. 460 nm). Compound 1051 is the known inhibitor, Cbz-Gly-boroproline. Initial velocity of the reaction was calculated and normalized to control reactions conducted in the absence of test compound.
The inhibition was measured by the half maximal inhibitory concentration (IC50) of a compound of interest. The IC50 indicates how much of a particular compound is needed to inhibit seprase by half.

| Compound | IC50 [nM] | further results |
| --- | --- | --- |
| N#C[C@@H]1CCCN1C(=O)CNC(=O)c1ccc(I)cc1Cl [Compound 1041, (S)-2-chloro-N-(2-(2-cyanopyrrolidin-1-yl)-2-oxoethyl)-4-iodobenzamide] | 692 |  |
| N#C[C@@H]1CCCN1C(=O)CNC(=O)c1cc(I)ccc1Cl [Compound 1042, (S)-2-chloro-N-(2-(2-cyanopyrrolidin-1-yl)-2-oxoethyl)-5-iodobenzamide] | 785 |  |
| N#Cc1ccc(I)cc1C(=O)NCC(=O)N1CCC[C@H]1C#N [Compound 1044, (S)-2-cyano-N-(2-(2-cyanopyrrolidin-1-yl)-2-oxoethyl)-5-iodobenzamide] | 23700 |  |
| N#C[C@@H]1CCCN1C(=O)CNC(=O)c1cc(I)cc(C(=O)O)c1 [Compound 1045, (S)-3-(2-(2-cyanopyrrolidin-1-yl)-2-oxoethylcarbamoyl)-5-iodobenzoic acid] | 1440 |  |
| N#C[C@@H]1CCCN1C(=O)CNC(=O)[C@@H](CC(=O)O)NC(=O)c1cccc(I)c1 [Compound 1048, (R)-4-(2-((S)-2-cyanopyrrolidin-1-yl)-2-oxoethylamino)-3-(3-iodobenzamido)-4-oxobutanoic acid] | 7410 |  |
| N#C[C@@H]1CCCN1C(=O)CN1CCN(Cc2cccc(I)c2)CC1 [Compound 1050, (S)-1-(2-(4-(3-iodobenzyl)piperazin-1-yl)acetyl)pyrrolidine-2-carbonitrile] | 1150 |  |
| O=C(NCC(=O)N1CCCC1B(O)O)OCc1ccccc1 (stereo not drawn) [Compound 1051, Cbz-Gly-boroproline, reference compound] | 67 | remaining activity at 0.005 µM (inhibitor 0.005 μM, initial velocity normalized to control without test compound, 50 μM Z-Gly-Pro-AMC, read-out: Percent of Control): 81%; remaining activity at 0.05 µM (inhibitor 0.05 μM, initial velocity normalized to control without test compound, 50 μM Z-Gly-Pro-AMC, read-out: Percent of Control): 46%; remaining activity at 0.5 µM (inhibitor 0.5 μM, initial velocity normalized to control without test compound, 50 μM Z-Gly-Pro-AMC, read-out: Percent of Control): 1%; remaining activity at 5 µM (inhibitor 5 μM, initial velocity normalized to control without test compound, 50 μM Z-Gly-Pro-AMC, read-out: Percent of Control): 0%; remaining activity at 500 µM (inhibitor 500 μM, initial velocity normalized to control without test compound, 50 μM Z-Gly-Pro-AMC, read-out: Percent of Control): 0% |
| Re(CO)3-2,2′-(2,2′-(6-(2-(2-boronopyrrolidin-1-yl)-2-oxoethylamino)-6-oxohexyl azanediyl)bis(methylene)bis(1H-imidazole-2,1-diyl))diacetic acid [Compound 1020] | 4 |  |
| Re(CO)3-(S)-2,2′-(2,2′-(6-(2-(2-cyanopyrrolidin-1-yl)-2-oxoethylamino)-6-oxohexylazanediyl)bis(methylene)bis(1H-imidazole-2,1-diyl))diacetic acid [Compound 1022] | 236 |  |
| Re(CO)3[1-(2-(6-(bis((1-methyl-1H-imidazol-2-yl)methyl)amino) hexanamido)acetyl)pyrrolidin-2-ylboronic acid] [Compound 1018] | 20 |  |
| Re(CO)3[2-((6-(2-(2-boronopyrrolidin-1-yl)-2-oxoethylamino)-6-oxohexyl)(pyridin-2-ylmethyl)amino)acetic acid] [Compound 1016] | 3530 |  |

Further compounds by falling IC50, results first:

| IC50 [nM] | Compound | further results |
| --- | --- | --- |
| 24500 | NC(Cc1ccc(I)cc1)C(=O)NCC(=O)N1CCCC1N (stereo not shown) [Compound 1061] |  |
| 2540 | Re(CO)3[1-(6-(bis(pyridin-2-ylmethyl)amino)hexanoyl)pyrrolidin-2-ylboronic acid] [Compound 1010] | Percent of Control (inhibitor 0.005 μM, initial velocity normalized to control without test compound, 50 μM Z-Gly-Pro-AMC): 90%; Percent of Control (inhibitor 0.05 μM, initial velocity normalized to control without test compound, 50 μM Z-Gly-Pro-AMC): 95%; Percent of Control (inhibitor 0.5 μM, initial velocity normalized to control without test compound, 50 μM Z-Gly-Pro-AMC): 82%; Percent of Control (inhibitor 5 μM, initial velocity normalized to control without test compound, 50 μM Z-Gly-Pro-AMC): 26%; Percent of Control (inhibitor 50 μM, initial velocity normalized to control without test compound, 50 μM Z-Gly-Pro-AMC): 0%; Percent of Control (inhibitor 500 μM, initial velocity normalized to control without test compound, 50 μM Z-Gly-Pro-AMC): 0% |
| 970 | N#C[C@H]1CCCN1C(=O)CNC(=O)c1cccc(I)c1 [Compound 1046, (R)-N-(2-(2-cyanopyrrolidin-1-yl)-2-oxoethyl)-3-iodobenzamide] |  |
| 953 | N#C[C@@H]1CCCN1C(=O)CNCc1cccc(I)c1 [Compound 1049, (S)-1-(2-(3-iodobenzylamino)acetyl)pyrrolidine-2-carbonitrile] |  |
| 115 | N#C[C@@H]1CCCN1C(=O)CNC(=O)c1ccccc1I [Compound 1043, (S)—N-(2-(2-cyanopyrrolidin-1-yl)-2-oxoethyl)-2-iodobenzamide] |  |
| 21 | Re(CO)3[1-(2-(6-(bis(pyridin-2-ylmethyl)amino)hexanamido) acetyl)pyrrolidin-2-ylboronic acid] [Compound 1014] |  |
